Data: patent US20230312601A1, “THIAZOLO[5,4-B]PYRIDINE MALT-1 INHIBITORS” (AbbVie Inc., priority 2022, published 2023)

How the values were obtained:
human MALT-1 protein = human MALT-1 protein (Homo sapiens (Human), UniProt Q9UDY8); experiment: MALT-1 Biochemical Assay (Quench-FRET enzyme assay); details: human MALT-1 6 nM, substrate 2 μM, 40 min preincubation
Text: A Quenched Fluorescence Resonance Energy Transfer (Quench-FRET) enzyme assay was used to test the ability of exemplary MALT-1 inhibitors Example 1 to Example 39 to inhibit the cleavage of a MALT1 specific quenched fluorescent substrate of sequence [TAMRA-PEG2-Leu-Val-Ser-Arg-Gly-Ala-Ala-Ser-PEG2-K(QSY7) by human MALT-1 protein; where TAMRA is 6-carboxytetramethylrhodamine, PEG2 is 2-(2-(2-aminoethoxy)ethoxyamide linker, QSY7 is a non-fluorescent quenching dye (Thermo-Fisher catalog #Q10193). The assay was performed by pre-dispensing compounds into 384 well Proxiplates™ (PE 6008289). Human MALT-1 (6 nM) was prepared using the assay buffer (25 mM HEPES pH 7.5, 1 mM ethylenediaminetetraacetic acid, 0.8 M sodium citrate, 0.005% Bovine serum albumin (BSA), 2 mM dithiothreitol (DTT)) and added to the compound plates. The plates were incubated 40 minutes at room temperature. The reaction was carried out by adding the substrate (2 μM) to the plates and incubating for 60 minutes at room temperature. A fluorescence readout was then measured using a PE EnVision® reader (Ex.535/Em.590). […] EC50 is defined as the half maximal effective concentration of compound to inhibit MALT-1 protease activity.

OCI-LY3 IL6 = experiment: MALT-1 Cell IL-6 AlphaLISA Assay; assay type: cell-based; details: Homo sapiens; OCI-LY3 cells, 48 hours incubation; read-out: OCI-LY3 IL6 48 hour Inhibition EC50
Procedure: The following MALT-1 Cell Interleukin-6 (IL-6) AlphaLISA assay was conducted using a Perkin Elmer® IL-6 AlphaLISA® detection kit (PE AL223). The IL-6 detection assay is a homogeneous immunoassay that detects human IL-6 present in the cell culture medium in the MALT-1 dependent human ABC-DLBCL cell line, OCI-LY3. Compounds were pre-dispensed into Black 384w microtiter plates (Greiner, 781090) from 30 μM to 1.5 nM. Viable OCI-LY3 cells were then seeded on top of compounds at a seeding density of 50,000 cells/mL. Plates were then placed into 37° C. incubators for 48 hours. After 48 hours incubation, 2 μL of cell medium from each well was transferred into white ProxiPlates™ (PE 6008289). A fresh mix of AlphaLISA Acceptor beads (10 μg/mL) and Biotinylated IL-6 Antibody (1 nM) was made in AlphaLISA Immunoassay buffer and added to all wells (4 μL). The plates were incubated for 60 minutes at room temperature. Streptavidin donor beads (40 μg/mL) were prepared using the assay buffer and added to all wells (5 The plates were incubated for 30 minutes at room temperature and read using PE EnVision® reader. Results are shown in Table 3.

CYP 3A4 mRNA = experiment: CYP3A4 Induction Assay (qPCR, human hepatocytes); assay type: in vitro ADME; details: 10 μM compound, relative to rifampicin 10 μM
Procedure: (§1) CYP induction by compounds of the Examples was evaluated in vitro by determining the expression levels of CYP 3A4 mRNA using the qPCR (quantitative polymerase chain reaction) assay. On day one, cryopreserved human hepatocytes were thawed in prewarmed (37° C.) thawing medium (cryopreserved hepatocyte recovery medium, Gibco™ CM 7000; Thermo Fisher Scientific), centrifuged (1000 g for 10 minutes) and resuspended in plating medium (Gibco™ CM3000—Williams Medium E supplemented with hepatocytes plating supplement pak-serum containing; Thermo Fisher Scientific). Cells were counted by trypan blue exclusion using a hemocytometer and adjusted to a cell density of […]. Thereafter, […] of cell suspension was aliquoted per well in a 96-well plate, resulting in 60,000 cells/well. Plates were shaken in the north-south and east-west direction during plating. Plated cells were incubated at 37° C/5% CO2 in a humidified cell culture incubator for 4-6 hours. During this time, incubation medium (Gibco™ CM4000, cell maintenance supplement pack; Thermo Fisher Scientific) was mixed with Gibco™ Geltrex™ (Thermo Fischer Scientific) at the appropriate GeltrexTM protein concentration. Following recovery, medium was removed from cells and replaced with freshly prepared incubation medium. Cells were incubated overnight in a cell culture incubator (37° C./5% CO2).
(§2) The next day the incubation medium was prepared by combining the hepatocyte maintenance supplement pack with Williams Medium E. The medium was warmed to 37° C. 1000× dimethyl sulfoxide compound stocks of the compounds of the Examples were prepared to the desired concentrations. 10 mM compound stocks in dimethyl sulfoxide were diluted (1 μL to 1 mL CM4000; final concentration=10 μM). Overlay medium was aspirated and […] dose solution added to the desired labeled 96 well plate. Cells were then dosed with compound (10 μM) and prototypical induces at the targeted concentrations either 50 i.tM for omeprazole (Sigma 0104/lotBCBF-2161V) or 10 i.tM for rifampicin (Sigma R3501/lot 011M1159V). A negative control, probenecid, was dosed at 10 i.tM (Sigma P8761/lot 013K0148).
(§3) On day 3, RNA isolation was performed. All surfaces were cleaned using RNase RNAy. Total RNA was isolated using MagMAX Express 96 RNA Isolation System (Life Technologies, AM1830). Briefly, hepatocytes were washed once with 1X PBS (phosphate buffered saline). 145 μL of RNA Lysis Buffer was added to each well and each well was mixed by pipetting several times. Lysate was then transferred to a well of a 96 well Binding Plate. Samples were then mixed with 20 μL magnetic beads coming from the kit. RNA bound to beads was then captured by the magnetic tip manifold and beads were washed with the wash solution. Samples were treated with TURBOTmDNase. After TURBOTmDNase treatment, RNA was rebound to beads and washed with the provided wash buffer an additional two times. Beads are then dried, and RNA was eluted with 50 μL elution buffer. The eluted mRNA was transferred from the wells to RNase-free sealable microtiter plates and stored at -80° C. until use.
(§4) Following mRNA isolation, reverse transcription (RT) reactions were performed using TaqmanTm Reverse Transcription Reagents (ThermoFisher Scientific). RT master mix was prepared by mixing 2.5 μL 10× RT buffer, 5.5 μL 25 mM MgCl2, 5μL deoxyNTP mixture, 1.25 50 mM random hexamers, 0.5 μL 2× RNAse inhibitor, 0.625 μL multiscript RTase (50U/μL) and 0.625 μL water. An aliquot of RT mix (16 μL) and an aliquot of mRNA sample (9 μL) was added to each well of a 96-well plate. The SimpliAmpTM Thermal cycler PCR System VIIA7 from Applied Biosystems was used for reverse transcription under the following conditions: segment 1: 25° C. for 10 minutes; segment 2: 45° C. for 45 minutes; segment 3: 95° C. for 5 minutes; and segment 4: 4° C. hold; with 1 cycle for each segment. […]

CYP3A4 mRNA = experiment: CYP3A4 Induction Assay (qPCR, human hepatocytes); assay type: in vitro ADME; details: cryopreserved human hepatocytes (plated), 10 μM compound, mRNA fold over vehicle (0.1% DMSO)
Procedure: as §1, §2, §3, §4

Chain of human MALT-1 protein (Q9UDY8 whole entry): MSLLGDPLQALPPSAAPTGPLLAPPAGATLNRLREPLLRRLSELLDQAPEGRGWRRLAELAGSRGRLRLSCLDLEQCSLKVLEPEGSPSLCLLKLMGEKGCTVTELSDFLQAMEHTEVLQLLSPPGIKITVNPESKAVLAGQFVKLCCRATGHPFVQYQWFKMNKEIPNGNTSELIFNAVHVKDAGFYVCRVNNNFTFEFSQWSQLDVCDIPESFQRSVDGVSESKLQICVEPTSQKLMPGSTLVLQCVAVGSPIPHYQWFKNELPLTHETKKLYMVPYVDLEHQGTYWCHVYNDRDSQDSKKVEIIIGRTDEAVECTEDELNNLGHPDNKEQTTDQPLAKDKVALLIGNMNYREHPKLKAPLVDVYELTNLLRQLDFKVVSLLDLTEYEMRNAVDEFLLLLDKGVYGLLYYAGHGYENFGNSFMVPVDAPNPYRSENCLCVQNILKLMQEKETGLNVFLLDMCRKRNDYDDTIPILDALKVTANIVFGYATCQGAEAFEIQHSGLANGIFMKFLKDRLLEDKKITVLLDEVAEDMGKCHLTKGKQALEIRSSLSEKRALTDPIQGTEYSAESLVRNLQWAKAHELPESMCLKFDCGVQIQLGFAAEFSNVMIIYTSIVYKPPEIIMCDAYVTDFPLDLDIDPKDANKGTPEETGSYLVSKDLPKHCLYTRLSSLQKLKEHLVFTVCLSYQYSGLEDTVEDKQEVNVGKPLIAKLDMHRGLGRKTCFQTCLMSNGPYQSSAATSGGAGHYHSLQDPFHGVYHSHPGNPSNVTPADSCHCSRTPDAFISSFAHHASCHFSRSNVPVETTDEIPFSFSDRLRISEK

| Structure (SMILES) | EC50 (human MALT-1 protein) | EC50 (OCI-LY3 IL6) | CYP3A4 % of positive control (%) (CYP 3A4 mRNA) | fold induction at 1 day, 10 µM (CYP3A4 mRNA) |
| --- | --- | --- | --- | --- |
| CCN(C(=O)C1CCS(=O)(=O)CC1)[C@@H](c1ccc(Nc2cnc3sc(C)nc3c2[C@H](C)OC)cc1)C(F)(F)F [Example 7, N-ethyl-1,1-dioxo-N-{(1S)-2,2,2-trifluoro-1-[4-({7-[(1S)-1-methoxyethyl]-2-methyl[1,3]thiazolo [5,4-b]pyridin-6-yl}amino)phenyl]ethyl}-1λ^6-thiane-4-carboxamide] | 135 nM | 140 nM | (12.7) % | 1.93 |
| CO[C@H](C)c1c(Nc2ccc([C@H](N(C)C(=O)C3CCS(=O)(=O)CC3)C(F)(F)F)cc2)cnc2sc(C)nc12 [Example 8, N-methyl-1,1-dioxo-N-{(1S)-2,2,2-trifluoro-1-[4-({7-[(1R)-1-methoxyethyl]-2-methyl[1,3]thiazolo [5,4-b]pyridin-6-yl}amino)phenyl]ethyl}-1λ^6-thiane-4-carboxamide] | 99 nM | 70 nM | (9.23) % | 1.53 |
| CO[C@@H](C)c1c(Nc2c(F)cc([C@H](N(C)C(=O)C3CCS(=O)(=O)CC3)C(F)(F)F)cc2F)cnc2sc(C)nc12 [Example 9, N-{(1S)-1-[3,5-difluoro-4-({7-[(1S)-1-methoxyethyl]-2-methyl[1,3]thiazolo[5,4-b]pyridin-6-yl}amino)phenyl]-2,2,2-trifluoroethyl}-N-methyl-1,1-dioxo-1λ^6-thiane-4-carboxamide] | 102 nM | 140 nM | (−5.95) % | 0.548 |
| CO[C@@H](c1c(Nc2ccc([C@H](N(C)C(=O)C3CCS(=O)(=O)CC3)C(F)(F)F)cc2)cnc2sc(C)nc12)C(F)(F)F [Example 11, N-methyl-1,1-dioxo-N-{(1S)-2,2,2-trifluoro-1-[4-({2-methyl-7-[(1S)-2,2,2-trifluoro-1-methoxyethyl][1,3]thiazolo[5,4-b]pyridin-6-yl}amino)phenyl]ethyl}-1λ^6-thiane-4-carboxamide] | 155 nM | 390 nM | (20) % | 2.59 |
| CO[C@H](C)c1c(Nc2ccc([C@@H](C(F)F)N(C)C(=O)C3CCS(=O)(=O)CC3)cc2)cnc2sc(C)nc12 [Example 12, N-{(1S)-2,2-difluoro-1-[4-({7-[(1R)-1-methoxyethyl]-2-methyl[1,3]thiazolo[5,4-b]pyridin-6-yl}amino)phenyl]ethyl}-N-methyl-1,1-dioxo-1λ^6-thiane-4-carboxamide] | 61 nM | 200 nM | (31) % | 3.65 |
| CO[C@@H](c1c(Nc2ccc([C@@H](C(F)F)N(C)C(=O)C3CCS(=O)(=O)CC3)cc2)cnc2sc(C)nc12)C(F)F [Example 13, N-{(1S)-1-[4-({7-[(1S)-2,2-difluoro-1-methoxyethyl]-2-methyl[1,3]thiazolo[5,4-b]pyridin-6-yl}amino)phenyl]-2,2-difluoroethyl}-N-methyl-1,1-dioxo-1λ^6-thiane-4-carboxamide] | 193 nM | 420 nM | (34.8) % | 3.19 |
| CO[C@H](c1c(Nc2ccc([C@@H](C(F)F)N(C)C(=O)C3CCS(=O)(=O)CC3)cc2)cnc2sc(C)nc12)C(F)(F)F [Example 14, N-{(1S)-2,2-difluoro-1-[4-({2-methyl-7-[(1R)-2,2,2-trifluoro-1-methoxyethyl][1,3]thiazolo[5,4-b]pyridin-6-yl}amino)phenyl]ethyl}-N-methyl-1,1-dioxo-1λ^6-thiane-4-carboxamide] | 97 nM | 200 nM | (27.3) % | 2.71 |
| CO[C@@H](C)c1c(Nc2ccc([C@H](N(C)C(=O)C3CCS(=O)(=O)CC3)C(F)(F)F)cc2)cnc2sc(C(F)F)nc12 [Example 15, N-{(1 5)-1-[4-({2-(difluoromethyl)-7-[(1S)-1-methoxyethyl][1,3]thiazolo[5,4-b]pyridin-6-yl}amino)phenyl]-2,2,2-trifluoroethyl}-N-methyl-1,1-dioxo-1λ^6-thiane-4-carboxamide] | 103 nM | 300 nM | (−4.74) % | 0.413 |
| CO[C@H](c1c(Nc2ccc([C@H](N(C)C(=O)C3CCN(C(C)=O)CC3)C(F)(F)F)cc2)cnc2sc(C)nc12)C(F)F [Example 18, 1-acetyl-N-{(1,5)-1-[4({7-[(1R)-2,2-difluoro-1-methoxyethyl]-2-methyl[1,3]thiazolo [5,4-b]pyridin-6-yl}amino)phenyl]-2,2,2-trifluoroethyl}-N-methylpiperidine-4-carboxamide] | 284 nM | 1150 nM | (16.5) % | 2.8 |
| CO[C@@H](C)c1c(Nc2ccc([C@H](N(C)C(=O)C3CCN(C(=O)CO)CC3)C(F)(F)F)cc2)cnc2sc(C)nc12 [Example 20, 1-(hydroxyacetyl)-N-methyl-N-{(1S)-2,2,2-trifluoro-1-[4-({7-[(1S)-1-methoxyethyl]-2-methyl[1,3]thiazolo [5,4-b]pyridin-6-yl}amino)phenyl]ethyl}piperidine-4-carboxamide] | 120 nM | 180 nM | (4.08) % | 1.38 |
